In PubChem BioAssay (NCI):
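Each compound was tested at five concentrations against cells in 96-well plates for 48 hours. TGI: concentration producing complete growth inhibition.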

Experiments:
Assay in all cases: NCI tumour cell line growth inhibition, 48 h
A549 NSCLC = system: A549 NSCLC
ACHN renal = system: ACHN renal
DMS 273 small cell lung = system: DMS 273 small cell lung
HOP-62 NSCLC = system: HOP-62 NSCLC
IGROV1 ovarian = system: IGROV1 ovarian
M14 melanoma = system: M14 melanoma
MALME-3M melanoma = system: MALME-3M melanoma
SK-MEL-2 melanoma = system: SK-MEL-2 melanoma
SK-MEL-5 melanoma = system: SK-MEL-5 melanoma
SNB-78 CNS = system: SNB-78 CNS

SMILES	TGI (A549 NSCLC) [µM]	TGI (ACHN renal) [µM]	TGI (DMS 273 small cell lung) [µM]	TGI (HOP-62 NSCLC) [µM]	TGI (IGROV1 ovarian) [µM]	TGI (M14 melanoma) [µM]	TGI (MALME-3M melanoma) [µM]	TGI (SK-MEL-2 melanoma) [µM]	TGI (SK-MEL-5 melanoma) [µM]	TGI (SNB-78 CNS) [µM]
COc1ccccc1NC(=O)C1=C(C)NC(C)=C(C(=O)Nc2ccccc2OC)C1/C=C/c1ccccc1	> 100	> 100	> 100	> 100	> 100	> 100	> 100	> 100	> 100	> 100
CC(C)c1cccc(C(C)C)c1N1C(=O)C(=O)C(c2nc3ccccc3o2)C(=O)C1=O	> 100	> 100	> 100	> 100	> 100	> 100	> 100	> 100	> 100	> 100
CN(C)CC1CC/C(=C\c2ccc3c(c2)OCO3)C1=O (stereo not given)	> 75.3	28.5	30.9	> 70.1	26.9	15	18.3	22.8	28	51
NC1c2ccccc2Nc2ccccc21	19.8	24.6	25.7	26.7	21.7	15.4	19	29.8	17.1	37.3
COCCOc1cc(C)cc(/C=C(C)/C=C/C2=C(C)CCCC2(C)C)n1	> 100	> 100	> 100	> 100	> 100	> 100	> 100	> 100	39.8	> 100
COc1ccc2nc(C(=O)c3ccccc3)c(C)cc2c1	> 70	> 100	63.5	37.1	> 73.1	13.4	> 39.1	> 100	12.3	> 100
N#CC(C(=O)CCCC(=O)Nc1ccc(Cl)cc1Cl)c1ccccc1 (stereo not given)	> 100	> 100	> 100	> 100	> 100	> 100	> 100	> 100	> 100	> 100
C1CN(c2nnc(N3CCC3)nn2)C1	> 100	> 92.1	> 60.2	> 100	> 100	62.1	> 79.3	> 89.5	73.3	> 100
Cc1cccc(C(=O)O)c1C(=O)c1cccc2ccccc12	> 100	> 100	> 100	> 100	> 100	> 100	> 100	> 100	> 100	> 100
CC1OC(=O)C(O)=C1O (stereo not given)	> 100	> 100	> 100	> 100	> 100	> 100	> 100	> 100	> 100	> 100
